From patent US20100267561A1, “HERBICIDAL PYRIDAZINONE DERIVATIVES” (priority 2007, published 2010)

How the values were obtained:
Format in all cases: in vivo
[1] = tested on: rice (Oryza sativa); experiment: Test B flooded paddy test plant response
How it was run: (§1)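 2-leaf plants; pots flooded 3 cm above soil; compound added to paddy water; depth maintained. Greenhouse 13–15 d. Visual rating vs controls, 0 (no effect) to 100 (complete control); dash = no result.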

[2] = tested on: ducksalad (Heteranthera limosa); experiment: Test B flooded paddy test plant response
How it was run: as §1

[3] = tested on: barnyardgrass (Echinochloa crus-galli); experiment: Test B flooded paddy test plant response
How it was run: as §1

[4] = tested on: umbrella sedge (Cyperus difformis); experiment: Test B flooded paddy test plant response
How it was run: as §1

[5] = tested on: green foxtail (Setaria viridis); experiment: Test B pre-/postemergence plant response
How it was run: (§2)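 Seeds were sown and sprayed preemergence, while plants at 2 to 18 cm (1- to 4-leaf stage) got postemergence sprays. Compounds were formulated in a non-phytotoxic solvent mixture with surfactant. After 13 to 15 days in a greenhouse, injury was rated visually against untreated controls, 0 (no effect) to 100 (complete control).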

[6] = tested on: large crabgrass (Digitaria sanguinalis); experiment: Test B pre-/postemergence plant response
How it was run: as §2

[7] = tested on: woolly cupgrass (Eriochloa villosa); experiment: Test B pre-/postemergence plant response
How it was run: as §2

[8] = tested on: eastern black (E.B.) nightshade (Solanum ptycanthum); experiment: Test B pre-/postemergence plant response; settings: Preemergence
How it was run: as §2

[9] = tested on: giant foxtail (Setaria faberii); experiment: Test B pre-/postemergence plant response
How it was run: as §2

[10] = tested on: corn (Zea mays); experiment: Test B pre-/postemergence plant response
How it was run: as §2

[11] = tested on: wild oat (Avena fatua); experiment: Test B pre-/postemergence plant response; settings: for Oat, Wild plant response rating: postemergence, 0-100 scale
How it was run: as §2

[12] = tested on: downy bromegrass (Bromus tectorum); experiment: Test B pre-/postemergence plant response
How it was run: as §2

[13] = tested on: pigweed (Amaranthus retroflexus); experiment: Test B pre-/postemergence plant response; settings: for Pigweed plant response rating: postemergence, 0-100 scale
How it was run: as §2

[14] = Flood (flooded paddy test), 62 g ai/ha, scale 0 to 100, 0 no effect, 100 complete control
[15] = Flood (flooded paddy test), 125 g ai/ha, scale 0 to 100, 0 no effect, 100 complete control
[16] = Flood (flooded paddy test), 250 g ai/ha, scale 0 to 100, 0 no effect, 100 complete control
[17] = Flood, 31 g ai/ha, scale 0 to 100
[18] = Postemergence, 31 g ai/ha, scale 0 to 100, 0 no effect, 100 complete control
[19] = Postemergence, 62 g ai/ha, scale 0 to 100
[20] = Postemergence, 125 g ai/ha, scale 0 to 100
[21] = Postemergence, 250 g ai/ha, scale 0 to 100
[22] = Preemergence, 31 g ai/ha, 0 to 100 scale, 0 no effect, 100 complete control
[23] = Preemergence, 62 g ai/ha, scale 0 to 100
[24] = Preemergence, 125 g ai/ha, scale 0 to 100
[25] = Preemergence, 250 g ai/ha, scale 0 to 100
[26] = 8 g ai/ha, postemergence, 0-100 scale
[27] = Postemergence, 16 g ai/ha, scale 0 to 100
[28] = Postemergence, 31 g ai/ha, scale 0 to 100
[29] = Postemergence, 62 g ai/ha, scale 0 to 100, 0 no effect, 100 complete control

Structure (SMILES): Cc1cc(-c2ccc(Br)cc2)nn1-c1c(OC(=O)OC(C)C)cnn(C)c1=O [Compound 6]
- Plant response rating, Rice [1, 14]: 30
- Plant response rating, Rice [1, 15]: 80
- Plant response rating, Rice [1, 16]: 90
- Plant response rating, Rice [1, 17]: 20
- Plant response rating, Ducksalad [2, 14]: 50
- Plant response rating, Ducksalad [2, 15]: 60
- Plant response rating, Ducksalad [2, 16]: 70
- Plant response rating, Ducksalad [2, 17]: 40
- Plant response rating, Barnyardgrass [3, 14]: 40
- Plant response rating, Barnyardgrass [3, 15]: 80
- Plant response rating, Barnyardgrass [3, 16]: 90
- Plant response rating, Barnyardgrass [3, 17]: 0
- Plant response rating, Sedge, Umbrella [4, 14]: 70
- Plant response rating, Sedge, Umbrella [4, 15]: 85
- Plant response rating, Sedge, Umbrella [4, 16]: 95
- Plant response rating, Sedge, Umbrella [4, 17]: 30
- Plant response rating, Foxtail, Green [5, 18]: 100
- Plant response rating, Foxtail, Green [5, 19]: 100
- Plant response rating, Foxtail, Green [5, 20]: 100
- Plant response rating, Foxtail, Green [5, 21]: 100
- Plant response rating, Foxtail, Green [5, 22]: 100
- Plant response rating, Foxtail, Green [5, 23]: 100
- Plant response rating, Foxtail, Green [5, 24]: 100
- Plant response rating, Foxtail, Green [5, 25]: 100
- Plant response rating, Crabgrass, Large [6, 18]: 100
- Plant response rating, Crabgrass, Large [6, 19]: 100
- Plant response rating, Crabgrass, Large [6, 20]: 100
- Plant response rating, Crabgrass, Large [6, 21]: 100
- Plant response rating, Crabgrass, Large [6, 22]: 98
- Plant response rating, Crabgrass, Large [6, 23]: 100
- Plant response rating, Crabgrass, Large [6, 24]: 100
- Plant response rating, Crabgrass, Large [6, 25]: 100
- Plant response rating, Cupgrass, Woolly [7, 18]: 100
- Plant response rating, Cupgrass, Woolly [7, 19]: 100
- Plant response rating, Cupgrass, Woolly [7, 20]: 100
- Plant response rating, Cupgrass, Woolly [7, 21]: 100
- Plant response rating, Cupgrass, Woolly [7, 22]: 85
- Plant response rating, Cupgrass, Woolly [7, 23]: 85
- Plant response rating, Cupgrass, Woolly [7, 24]: 85
- Plant response rating, Cupgrass, Woolly [7, 25]: 85
- Plant response rating, Nightshade, E. B. ([8]; 31 g ai/ha, 0 to 100 scale, 0 no effect, 100 complete control): 0
- Plant response rating, Nightshade, E. B. ([8]; 125 g ai/ha, scale 0 to 100): 90
- Plant response rating, Nightshade, E. B. ([8]; 250 g ai/ha, scale 0 to 100): 90
- Plant response rating, Foxtail, Giant [9, 18]: 100
- Plant response rating, Foxtail, Giant [9, 19]: 100
- Plant response rating, Foxtail, Giant [9, 20]: 100
- Plant response rating, Foxtail, Giant [9, 21]: 100
- Plant response rating, Foxtail, Giant [9, 22]: 100
- Plant response rating, Foxtail, Giant [9, 23]: 100
- Plant response rating, Foxtail, Giant [9, 24]: 100
- Plant response rating, Foxtail, Giant [9, 25]: 100
- Plant response rating, Corn [10, 18]: 95
- Plant response rating, Corn [10, 19]: 95
- Plant response rating, Corn [10, 20]: 100
- Plant response rating, Corn [10, 21]: 100
- Plant response rating, Corn [10, 22]: 95
- Plant response rating, Corn [10, 23]: 98
- Plant response rating, Corn [10, 24]: 98
- Plant response rating, Corn [10, 25]: 100
- Plant response rating, Oat, Wild [11, 18]: 100
- Plant response rating, Oat, Wild [11, 19]: 100
- Plant response rating, Oat, Wild [11, 20]: 100
- Plant response rating, Oat, Wild [11, 21]: 100
- Plant response rating, Oat, Wild [11, 22]: 50
- Plant response rating, Oat, Wild [11, 23]: 50
- Plant response rating, Oat, Wild [11, 24]: 85
- Plant response rating, Oat, Wild [11, 25]: 85
- Plant response rating, Bromegrass, Downy [12, 18]: 5
- Plant response rating, Bromegrass, Downy [12, 19]: 5
- Plant response rating, Bromegrass, Downy [12, 20]: 5
- Plant response rating, Bromegrass, Downy [12, 21]: 10
- Plant response rating, Bromegrass, Downy [12, 22]: 50
- Plant response rating, Bromegrass, Downy [12, 23]: 65
- Plant response rating, Bromegrass, Downy [12, 24]: 65
- Plant response rating, Bromegrass, Downy ([12]; Preemergence, 250 g ai/ha, scale 0 to 100 (0 no effect, 100 complete control)): 95
- Plant response rating, Pigweed [13, 18]: 0
- Plant response rating, Pigweed [13, 19]: 0
- Plant response rating, Pigweed [13, 20]: 0
- Plant response rating, Pigweed [13, 21]: 40
- Plant response rating, Pigweed [13, 23]: 0
- Plant response rating, Pigweed [13, 24]: 30
- Plant response rating, Pigweed [13, 25]: 60

Structure (SMILES): COCc1cc(-c2ccc(Br)cc2)nn1-c1c(O)cnn(C)c1=O [Compound 68]
- Plant response rating, Rice [1, 14]: 0
- Plant response rating, Rice [1, 15]: 0
- Plant response rating, Rice [1, 16]: 0
- Plant response rating, Rice [1, 17]: 0
- Plant response rating, Ducksalad [2, 14]: 0
- Plant response rating, Ducksalad [2, 15]: 0
- Plant response rating, Ducksalad [2, 16]: 0
- Plant response rating, Ducksalad [2, 17]: 0
- Plant response rating, Barnyardgrass [3, 14]: 0
- Plant response rating, Barnyardgrass [3, 15]: 0
- Plant response rating, Barnyardgrass [3, 16]: 0
- Plant response rating, Barnyardgrass [3, 17]: 0
- Plant response rating, Sedge, Umbrella [4, 14]: 0
- Plant response rating, Sedge, Umbrella [4, 15]: 0
- Plant response rating, Sedge, Umbrella [4, 16]: 0
- Plant response rating, Sedge, Umbrella [4, 17]: 0
- Foxtail, Green plant response rating [5, 26]: 10
- Plant response rating, Foxtail, Green [5, 27]: 50
- Plant response rating, Foxtail, Green [5, 28]: 60
- Plant response rating, Foxtail, Green [5, 29]: 95
- Crabgrass, Large plant response rating [6, 26]: 20
- Plant response rating, Crabgrass, Large [6, 27]: 60
- Plant response rating, Crabgrass, Large [6, 28]: 80
- Plant response rating, Crabgrass, Large [6, 29]: 85
- Cupgrass, Woolly plant response rating [7, 26]: 0
- Plant response rating, Cupgrass, Woolly [7, 27]: 0
- Plant response rating, Cupgrass, Woolly [7, 28]: 30
- Plant response rating, Cupgrass, Woolly [7, 29]: 60
- Foxtail, Giant plant response rating [9, 26]: 10
- Plant response rating, Foxtail, Giant [9, 27]: 60
- Plant response rating, Foxtail, Giant [9, 28]: 65
- Plant response rating, Foxtail, Giant [9, 29]: 90
- Corn plant response rating [10, 26]: 0
- Plant response rating, Corn [10, 27]: 0
- Plant response rating, Corn [10, 28]: 30
- Plant response rating, Corn [10, 29]: 95
- Oat, Wild plant response rating ([11]; 8 g ai/ha): 0
- Oat, Wild plant response rating ([11]; 16 g ai/ha): 0
- Plant response rating, Oat, Wild [11, 28]: 5
- Plant response rating, Oat, Wild [11, 29]: 40
- Bromegrass, Downy plant response rating [12, 26]: 0
- Plant response rating, Bromegrass, Downy [12, 27]: 0
- Plant response rating, Bromegrass, Downy [12, 28]: 0
- Plant response rating, Bromegrass, Downy [12, 29]: 0
- Pigweed plant response rating ([13]; 8 g ai/ha): 0
- Pigweed plant response rating ([13]; 16 g ai/ha): 0
- Plant response rating, Pigweed [13, 28]: 0
- Plant response rating, Pigweed [13, 29]: 0
